≈ marks a conversion by molar mass, not a printed value. Calls of active or inactive are those of the source. No cut-off for these calls is given here.

Assay [1] has as its system Cryptococcus neoformans. Description: Antifungal activity against Cryptococcus neoformans ATCC 90113 assessed as fungal growth inhibition incubated for 72 hrs by alamar blue assay. In kind it is functional.
Assay [2] relates to Cryptococcus neoformans. Description: Fungicidal activity against Cryptococcus neoformans ATCC 90113 assessed as fungal growth inhibition incubated for 72 hrs by alamar blue assay. In kind it is functional.
Assay [3] has as its system Candida albicans. Description: Antifungal activity against Candida albicans ATCC 90028 assessed as fungal growth inhibition incubated for 18 to 24 hrs by alamar blue assay. The format is functional.
Assay [4] has as its system Candida albicans. Description: Fungicidal activity against Candida albicans ATCC 90028 assessed as fungal growth inhibition incubated for 18 to 24 hrs by alamar blue assay. In kind it is functional.
The subject of assay [5] is Nakaseomyces glabratus. Description: Antifungal activity against Candida glabrata ATCC 90030 assessed as fungal growth inhibition incubated for 18 to 24 hrs by alamar blue assay. In kind it is functional.
Assay [6] relates to Nakaseomyces glabratus. Description: Fungicidal activity against Candida glabrata ATCC 90030 assessed as fungal growth inhibition incubated for 18 to 24 hrs by alamar blue assay. In kind it is functional.
Assay [7] deals with Pichia kudriavzevii. Description: Antifungal activity against Candida krusei ATCC 6258 assessed as fungal growth inhibition incubated for 18 to 24 hrs by alamar blue assay. In kind it is functional.
Assay [8] has as its system Pichia kudriavzevii. Description: Fungicidal activity against Candida krusei ATCC 6258 assessed as fungal growth inhibition incubated for 18 to 24 hrs by alamar blue assay. In kind it is functional.
The subject of assay [9] is Aspergillus fumigatus. Description: Antifungal activity against Aspergillus fumigatus ATCC 90906 assessed as fungal growth inhibition incubated for 72 hrs by alamar blue assay. The format is functional.
Assay [10] deals with Aspergillus fumigatus. Description: Fungicidal activity against Aspergillus fumigatus ATCC 90906 assessed as fungal growth inhibition incubated for 72 hrs by alamar blue assay. The format is functional.
In another assay the test system is Vero. Description: Cytotoxicity against African green monkey Vero cells assessed as reduction in cell viability incubated for 48 hrs by neutral red dye based assay. The arrangement: species or system Chlorocebus sabaeus.
Where [11] appears, read: Cryptococcus neoformans, ATCC 90113, 72 h, read-out: MIC.
Where [12] appears, read: Cryptococcus neoformans, ATCC 90113, 72 h, read-out: MFC.
The mark [13] stands for this setting: Candida albicans, ATCC 90028, time 18-24 hrs, read-out: MIC.
Setting [14] is: Candida albicans, ATCC 90028, time 18-24 hrs, read-out: MFC.
[15] abbreviates: Nakaseomyces glabratus, ATCC 90030, time 18-24 hrs, read-out: MIC.
Where [16] appears, read: Nakaseomyces glabratus, ATCC 90030, time 18-24 hrs, read-out: MFC.
[17] abbreviates: Pichia kudriavzevii, ATCC 6258, time 18-24 hrs, read-out: MIC.
The mark [18] stands for this setting: Pichia kudriavzevii, ATCC 6258, time 18-24 hrs, read-out: MFC.
The mark [19] stands for this setting: Aspergillus fumigatus, ATCC 90906, 72 h, read-out: MIC.
Setting [20] is: Aspergillus fumigatus, ATCC 90906, 72 h, read-out: MFC.
[21] abbreviates: Chlorocebus sabaeus, Vero, 48 h.

Take `CCCCCCCCCCCCCCC1(O)C(C)=C(C)C2=[N+](CC(=O)NCCCNC(=O)OC(C)(C)C)CCCN21` (centres undefined): the MIC in the assay on Cryptococcus neoformans [1] (setting [11]) stood at 3.8 µM; in the assay with Candida albicans [3] (setting [13]), 14 µM; in the assay with Nakaseomyces glabratus [5] (setting [15]) it was 7.6 µM; with Pichia kudriavzevii [7] (setting [17]), 5 µM; with Aspergillus fumigatus [9] (setting [19]) it was 10 µM. For the same compound, the MFC turned out to be 3.8 µM in the assay on Cryptococcus neoformans [2] (setting [12]); 14 µM in the assay on Candida albicans [4] (setting [14]); 14 µM with Nakaseomyces glabratus [6] (setting [16]); 5 µM with Pichia kudriavzevii [8] (setting [18]); 15 µM in the assay on Aspergillus fumigatus [10] (setting [20]). For the same compound, in the assay on Vero (setting [21]), the half-maximal inhibitory concentration (IC50) is above 38 µM.

As to `C#CC[N+]1=C2C(C)=C(C)C(O)(CCCCCCCCCCCCCC)N2CCC1` (centres undefined), the minimal inhibitory concentration (MIC) in the assay with Cryptococcus neoformans [1] (setting [11]) was determined as 1.5 µM; in the assay on Candida albicans [3] (setting [13]), 5.2 µM; in the assay with Nakaseomyces glabratus [5] (setting [15]), 5.2 µM; in the assay with Pichia kudriavzevii [7] (setting [17]), 2.1 µM; with Aspergillus fumigatus [9] (setting [19]), 5.2 µM. For the same compound, the MFC in the assay with Cryptococcus neoformans [2] (setting [12]) came to 2.3 µM; in the assay on Candida albicans [4] (setting [14]), 5.2 µM; in the assay on Nakaseomyces glabratus [6] (setting [16]) it was 5.2 µM; in the assay with Pichia kudriavzevii [8] (setting [18]), 2.1 µM; in the assay on Aspergillus fumigatus [10] (setting [20]), 5.2 µM. Also, the IC50 in the assay with Vero (setting [21]) amounted to 35 µM.

Regarding `CCCCCCCCCCCCCCC1(O)C(C)=C(C)C2=[N+](Cc3ccccc3)CCCN21.[Cl-]` (centres undefined), the MIC in the assay on Cryptococcus neoformans [1] stood at 2 µM; in the assay on Candida albicans [3] (time 18-24 hrs) it was 6.7 µM; in the assay with Nakaseomyces glabratus [5] (time 18-24 hrs), 4.3 µM; in the assay with Pichia kudriavzevii [7] (time 18-24 hrs), 4.3 µM; in the assay with Aspergillus fumigatus [9] it was 5.9 µM. Besides, the MFC in the assay on Cryptococcus neoformans [2] came out at 2 µM; with Candida albicans [4] (time 18-24 hrs) it was 6.7 µM; in the assay with Nakaseomyces glabratus [6] (time 18-24 hrs), 4.3 µM; in the assay on Pichia kudriavzevii [8] (time 18-24 hrs), 4.3 µM; with Aspergillus fumigatus [10], 5.9 µM. Besides, the IC50 with Vero (vero) was found to be 36 µM.

Take `CCCCCCCCCCCCCCC1(O)C(C)=C(C)C2=[N+](Cc3ccc(Br)cc3)CCCN21` (centres undefined): the minimum inhibitory concentration (MIC) in the assay on Cryptococcus neoformans [1] (setting [11]) came out at 3.4 µM; in the assay on Candida albicans [3] (setting [13]), 5.4 µM; in the assay with Nakaseomyces glabratus [5] (setting [15]), 2 µM; in the assay on Pichia kudriavzevii [7] (setting [17]), 2 µM; with Aspergillus fumigatus [9] (setting [19]), 5.4 µM. For the same compound, the MFC in the assay with Cryptococcus neoformans [2] (setting [12]) was 6 µM; in the assay with Candida albicans [4] (setting [14]), 5.4 µM; in the assay with Nakaseomyces glabratus [6] (setting [16]), 2 µM; in the assay on Pichia kudriavzevii [8] (setting [18]), 2 µM; with Aspergillus fumigatus [10] (setting [20]) it was 8.2 µM. Moreover, the IC50 with Vero (setting [21]) amounted to 35 µM.

For `CCCCCCCCCCCCCCC1(O)C(C)=C(C)C2=[N+](CC(=O)NCCCN)CCCN21` (centres undefined), the MIC in the assay on Cryptococcus neoformans [1] (setting [11]) was determined as 3.8 µM; with Candida albicans [3] (setting [13]) it was 12 µM; in the assay with Nakaseomyces glabratus [5] (setting [15]), 12 µM; with Pichia kudriavzevii [7] (setting [17]), 7.5 µM; in the assay on Aspergillus fumigatus [9] (setting [19]) it was 20 µM. The MFC with Cryptococcus neoformans [2] (setting [12]) came to 3.8 µM; in the assay with Candida albicans [4] (setting [14]) it was 18 µM; in the assay with Nakaseomyces glabratus [6] (setting [16]), 15 µM; in the assay with Pichia kudriavzevii [8] (setting [18]), 12 µM; with Aspergillus fumigatus [10] (setting [20]), 30 µM. Besides, the IC50 with Vero (setting [21]) was above 45 µM.

Take `CCCCCCCCCCCCCCC1(O)C(C)=C(C)C2=[N+](CC#N)CCCN21` (centres undefined): the minimum inhibitory concentration (MIC) came out at 1 µM in the assay with Cryptococcus neoformans [1] (setting [11]); 10 µM with Candida albicans [3] (setting [13]); 6 µM in the assay with Nakaseomyces glabratus [5] (setting [15]); 3.5 µM in the assay on Pichia kudriavzevii [7] (setting [17]); 6 µM in the assay on Aspergillus fumigatus [9] (setting [19]). In addition, the MFC in the assay with Cryptococcus neoformans [2] (setting [12]) turned out to be 1 µM; with Candida albicans [4] (setting [14]), 10 µM; in the assay with Nakaseomyces glabratus [6] (setting [16]) it was 8.7 µM; in the assay with Pichia kudriavzevii [8] (setting [18]) it was 4.4 µM; with Aspergillus fumigatus [10] (setting [20]), 6 µM. Moreover, the IC50 in the assay on Vero (setting [21]) was above 52 µM.

For `CCCCCCCCCCCCCCc1c(C)c(C)cn1CCCN`, the MIC with Cryptococcus neoformans [1] (setting [11]) worked out at 2.9 µM (≈ 1.01 µg/mL); with Candida albicans [3] (setting [13]) it was 24 µM (≈ 8.37 µg/mL); in the assay on Nakaseomyces glabratus [5] (setting [15]) it was 11 µM (≈ 3.83 µg/mL); in the assay with Pichia kudriavzevii [7] (setting [17]) it was 12 µM (≈ 4.18 µg/mL); with Aspergillus fumigatus [9] (setting [19]), 19 µM (≈ 6.62 µg/mL). Also, the MFC in the assay on Cryptococcus neoformans [2] (setting [12]) came to 2.9 µM (≈ 1.01 µg/mL); in the assay with Candida albicans [4] (setting [14]), 24 µM (≈ 8.37 µg/mL); in the assay with Nakaseomyces glabratus [6] (setting [16]) it was 12 µM (≈ 4.18 µg/mL); in the assay with Pichia kudriavzevii [8] (setting [18]) it was 12 µM (≈ 4.18 µg/mL); in the assay on Aspergillus fumigatus [10] (setting [20]), 19 µM (≈ 6.62 µg/mL). Also, the IC50 in the assay on Vero (setting [21]) was 44 µM.

Take `CCCCCCCCCCCCCCC1(O)C(C)=C(C)C2=[N+](C)c3ccccc3CN21` (centres undefined): in the assay on Cryptococcus neoformans [1] (setting [11]), the MIC turned out to be 2.4 µM. Besides, in the assay with Cryptococcus neoformans [2] (setting [12]), the MFC was found to be 2.4 µM. The MIC result in the assay with Candida albicans [3] (time 18-24 hrs), in the assay on Nakaseomyces glabratus [5] (time 18-24 hrs), with Pichia kudriavzevii [7] (time 18-24 hrs) and with Aspergillus fumigatus [9] was “inactive” each time. Besides, the MFC result in the assay on Candida albicans [4] (time 18-24 hrs), in the assay with Nakaseomyces glabratus [6] (time 18-24 hrs), in the assay with Pichia kudriavzevii [8] (time 18-24 hrs) and in the assay with Aspergillus fumigatus [10] was “inactive” throughout. For the same compound, the IC50 in the assay with Vero (setting [21]) was above 45 µM.

For `CCCCCCCCCCCCCCC1(O)C(C)=C(C)C2=[N+](Cc3ccccc3)CCCN21` (centres undefined), the MIC worked out at 1.5 µM in the assay with Cryptococcus neoformans [1] (setting [11]); 3.9 µM with Candida albicans [3] (setting [13]); 2.2 µM in the assay on Nakaseomyces glabratus [5] (setting [15]); 2.2 µM in the assay on Pichia kudriavzevii [7] (setting [17]); 4.7 µM with Aspergillus fumigatus [9] (setting [19]). For the same compound, the MFC worked out at 1.5 µM in the assay on Cryptococcus neoformans [2] (setting [12]); 3.9 µM in the assay with Candida albicans [4] (setting [14]); 2.2 µM in the assay on Nakaseomyces glabratus [6] (setting [16]); 2.2 µM in the assay on Pichia kudriavzevii [8] (setting [18]); 4.7 µM with Aspergillus fumigatus [10] (setting [20]). The IC50 in the assay with Vero (setting [21]) amounted to 25 µM.

(Values after ChEMBL document CHEMBL4828718, “Synthesis and Antifungal Activity Evaluation of Phloeodictine Analogues” (J Nat Prod, 2021).)
